Measurements published in paper PMC7803792 (Slas Discovery, 2021).
“Also recorded” adds a separate entry of the source.

Columns and labels:
[1] = target: T1, SARS-CoV-2 nsp10-nsp16 complex (Severe acute respiratory syndrome coronavirus 2, UniProt P0DTD1); assay: FP-based RNA displacement assay; format: binding; conditions: concentration for 50% displacement of 30 nM FAM-RNA from 0.5 µM nsp10-nsp16 complex
[2] = target: T1, SARS-CoV-2 nsp10-nsp16 complex; conditions: FP, 30 nM FAM-RNA, maximum FP signal
[3] = target: T1, SARS-CoV-2 nsp10-nsp16 complex; assay: Isothermal titration calorimetry; format: binding
[4] = target: SARS-CoV nsp10-nsp16 complex; conditions: cited from earlier work

Compound	Kdisp (K displacement) [1]	further results
Cn1c[n+]([C@@H]2O[C@H](COP(=O)(O)OP(=O)(O)OP(=O)(O)OC[C@H]3O[C@@H](n4cnc5c(=O)[nH]c(N)nc54)[C@H](O)[C@@H]3O)[C@@H](O)[C@H]2O)c2nc(N)[nH]c(=O)c21 [N7-meGpppG, m7G(5′)ppp(5′G]	17 ± 3 µM	
5′ N7-meGpppACCCCC-FAM 3′		Bmax [2]: 270 ± 5 mP
C[S+](CC[C@H](N)C(=O)[O-])C[C@H]1O[C@@H](n2cnc3c(N)ncnc32)[C@H](O)[C@@H]1O (stereo partly drawn) [SAM, S-adenosyl-L-methionine]		Kd [3]: 3.4 ± 1.5 µM; Kd [4]: 5.59 ± 1.15 µM
Nc1nc2c(ncn2[C@@H]2O[C@H](COP(=O)(O)OP(=O)(O)OP(=O)(O)OC[C@H]3O[C@@H](n4cnc5c(=O)[nH]c(N)nc54)[C@H](O)[C@@H]3O)[C@@H](O)[C@H]2O)c(=O)[nH]1 [GpppG, G(5′)ppp(5′)G]	unable to displace; also recorded: did not disrupt; also recorded: no RNA displacement	
Cn1c[n+]([C@@H]2O[C@H](COP(=O)(O)OP(=O)(O)OP(=O)(O)OC[C@H]3O[C@@H](n4cnc5c(N)ncnc54)[C@H](O)[C@@H]3O)[C@@H](O)[C@H]2O)c2nc(N)[nH]c(=O)c21 [N7-meGpppA, m7G(5′)ppp(5′)A]	20 ± 6 µM	
Nc1nc2c(ncn2[C@@H]2O[C@H](COP(=O)(O)OP(=O)(O)OP(=O)(O)OC[C@H]3O[C@@H](n4cnc5c(N)ncnc54)[C@H](O)[C@@H]3O)[C@@H](O)[C@H]2O)c(=O)[nH]1 [GpppA, G(5′)ppp(5′)A]	unable to displace; also recorded: did not disrupt; also recorded: no RNA displacement	
